Assay results from patent US7022716B2, “Cyclic amine phenyl beta-3 adrenergic receptor agonists” (Wyeth, priority 2000, dated 2006).

Experiments:
[1] = target: T1, human β3 adrenergic receptor (Homo sapiens, UniProt P13945); experiment: cAMP (SPA) response in CHO cells transfected with human β3 adrenergic receptor; assay type: cell-based; parameters: key: fraction of maximal isoproterenol (10^-5 M) response; settings: maximal response relative to maximal response of isoproterenol at 10^-5 M
T1 construct: Full length β3 AR clones (402 amino acids) containing the last 6 amino acids of hβ3-AR are prepared; expressed in transfected cells; host or cells: CHO (Chinese hamster ovary) cells
Procedure, shortened: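 Reactions were stopped with 0.2N HCl and neutralised, and cAMP was measured by SPA. Activity is expressed as percent of the maximal 10^−5 M isoproterenol response.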

T1 sequence (P13945 whole entry): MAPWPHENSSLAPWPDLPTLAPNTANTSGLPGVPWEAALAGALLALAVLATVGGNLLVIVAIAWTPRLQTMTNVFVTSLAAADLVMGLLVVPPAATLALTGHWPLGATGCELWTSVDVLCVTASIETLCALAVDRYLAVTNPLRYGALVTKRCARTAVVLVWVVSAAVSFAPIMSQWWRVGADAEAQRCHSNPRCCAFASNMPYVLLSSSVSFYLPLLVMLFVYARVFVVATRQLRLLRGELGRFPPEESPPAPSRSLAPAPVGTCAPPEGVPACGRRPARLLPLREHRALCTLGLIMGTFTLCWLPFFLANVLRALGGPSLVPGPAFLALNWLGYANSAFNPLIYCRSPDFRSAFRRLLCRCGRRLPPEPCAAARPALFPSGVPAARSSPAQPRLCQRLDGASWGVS

| Structure (SMILES) | IA(β3) [1] | melting point |
| --- | --- | --- |
| CC(C)(C)OC(=O)CN1C(=O)SC(Cc2ccc(N3CCC(NC[C@H](O)c4ccc(O)c(NS(C)(=O)=O)c4)CC3)cc2)C1=O (stereo partly drawn) [Example 64, 5-[[4-[4-[[(R)-2-Hydroxy-2-[4-hydroxy-3-[(methylsulfonyl)amino]phenyl]ethyl]amino]-1-piperidinyl]phenyl]methyl]-2,4-dioxo-3-thiazolidineacetic acid tert-butyl-ester] | 1 | 130 to 132 °C |
| CCOC(=O)CN1C(=O)SC(Cc2ccc(N3CCC(NC[C@H](O)c4ccc(O)c(NS(C)(=O)=O)c4)CC3)cc2)C1=O (stereo partly drawn) [Example 66, 5-[[4-[4-[[(R)-2-Hydroxy-2-[4-hydroxy-3-[(methylsulfonyl)amino]phenyl]ethyl]amino]-1-piperidinyl]phenyl]methyl]-2,4-dioxo-3-thiazolidineacetic acid ethyl-ester] | 0.81 | 153 to 155 °C |
| O=C1NC(=O)C(=Cc2ccc(N3CCC(NC[C@H](O)COc4cccc5[nH]c(=O)[nH]c45)CC3)c(F)c2)S1 [Example 69, 5-(3-Fluoro-4-{4-[(2S)-2-hydroxy-3-(2-oxo-2,3-dihydro-1H-benzoimidazol-4-yloxy)-propylamino]-piperidin-1-yl}-benzylidene)-thiazolidine-2,4-dione] | 1 | 162 to 164 °C |
| CS(=O)(=O)Nc1cc(C(O)CNC2CCN(c3ccc(C=C4SC(=O)NC4=O)cc3Br)CC2)ccc1O (stereo not shown) [Example 70, N-[5-(2-{1-[2-Bromo-4-(2,4-dioxo-thiazolidin-5-ylidenemethyl)-phenyl]-piperidin-4-ylamino}-1-hydroxy-ethyl)-2-hydroxy-phenyl]-methanesulfonamide] | 1.2 | > 200 °C |
| CS(=O)(=O)Nc1cc(C(O)CNC2CCN(c3ccc(C=C4SC(=O)NC4=O)cc3F)CC2)ccc1O (stereo not shown) [Example 71, N-[5-(2-{1-[4-(2,4-Dioxo-thiazolidin-5-ylidenemethyl)-2-fluoro-phenyl]-piperidin-4-ylamino}-1-hydroxy-ethyl)-2-hydroxy-phenyl]-methanesulfonamide] | 1.2 | > 225 °C |
| O=C1NC(=S)SC1=Cc1ccc(N2CCC(NC[C@H](O)COc3ccccc3)CC2)cc1 [Example 72, 5-{4-[4-((2S)-2-Hydroxy-3-phenoxy-propylamino)-piperidin-1-yl]-benzylidene}-2-thioxo-thiazolidin-4-one] | 0.68 | > 220 °C (dec.) |
| O=C1NC(=O)C(Cc2ccc(N3CCC(NC[C@H](O)COc4ccccc4)CC3)cc2)S1 (stereo partly drawn) [Example 73, 5-[4-[4-((2S)-2-Hydroxy-3-phenoxy-propylamino)-piperidin-1-yl]-benzyl}-thiazolidin-2,4-dione] | 0.71 | 218 to 220 °C |
| O=C1NC(=O)C(Cc2ccc(N3CCC(NCC(O)COc4ccc(OCc5ccccc5)cc4)CC3)cc2)S1 [Example 74, 5-(4-{4-[(2S)-3-(4-Benzyloxy-phenoxy)-2-hydroxy-propylamino]-piperidin-1-}-benzyl)-thiazolidine-2,4-dione] | 0.23 | > 70 °C (dec.) |
| O=C1NC(=O)C(=Cc2ccc(N3CCC(NC[C@H](O)COc4cccc5[nH]c(=O)[nH]c45)CC3)cc2)S1 [Example 75, 5-(4-{4-[(2S)-2-Hydroxy-3-(2-oxo-2,3-dihydro-1H-benzoimidazol-4-yloxy)-propylamino]-piperidin-1-yl}-benzylidene)-thiazolidine-2,4-dione] | 1.08 | > 240 °C (dec.) |
| O=C1NC(=O)C(=Cc2ccc(N3CCC(NC[C@H](O)COc4ccc(O)cc4)CC3)cc2)S1 [Example 76, 5-(4-{4-[(2S)-2-Hydroxy-3-(4-hydroxy-phenoxy)-propylamino]-piperidin-1-yl}-benzylidene)-thiazolidine-2,4-dione] | 0.94 | > 208 °C (dec.) |
| O=C1NC(=O)C(Cc2ccc(N3CCC(NC[C@H](O)c4cccc(Cl)c4)CC3)cc2)S1 (stereo partly drawn) [Example 79, 5-(4-{4-[2-(3-Chloro-phenyl)-(2R)-2-hydroxyethylamino}-piperidin-1-yl}-benzyl)-thiazolidine-2,4-dione] | 0.56 | > 195 °C |
| O=C1NC(=O)C(Cc2ccc(N3CCC(NC[C@H](O)COc4cccc5[nH]c(=O)[nH]c45)CC3)cc2)S1 (stereo partly drawn) [Example 80, 5-(4-{4-[(2S)-2-Hydroxy-3-(2-oxo-2,3-dihydro-1H-benzoimidazol-4-yloxy)-propylamino]-piperidin-1-yl}-benzyl)-thiazolidine-2,4-dione] | 1.1 | 173 to 175 °C (dec.) |
| O=C1NC(=O)C(Cc2ccc(N3CCC(NC[C@H](O)COc4ccc(O)cc4)CC3)cc2)S1 (stereo partly drawn) [Example 81, 5-(4-{4-[(2S)-2-Hydroxy-3-(4-hydroxy-phenoxy)-propylamino]-piperidin-1-yl}-benzyl)-thiazolidine-2,4-dione] | 0.89 | > 160 °C (dec.) |
| O=C1NC(=O)C(=Cc2ccc(N3CCC(NC[C@H](O)COc4ccccc4)CC3)cc2)S1 [Example 83, 5-{4-[4-((2S)-2-Hydroxy-3-phenoxy-propylamino)-piperidin-1-yl]-benzylidene}-thiazolidine-2,4-dione] | 0.68 | 208 to 210 °C |
| CS(=O)(=O)Nc1cc(C(O)CNC2CCN(c3ccc(C=C4NC(=O)NC4=O)cc3)CC2)ccc1O (stereo not shown) [Example 85, N-[5-(2-{1-[4-(2,5-Dioxo-imidazolidin-4-ylidenemethyl)-phenyl]-piperidin-4-ylamino}-1-hydroxy-ethyl)-2-hydroxy-phenyl]-methanesulfonamide] | 0.94 | > 201 °C (dec.) |
| O=C1NC(=O)C(Cc2ccc(N3CCC(NCC(O)COc4cccc5[nH]c(=O)[nH]c45)CC3)cc2)N1 (stereo not shown) [Example 86] | 0.69 | > 132 °C (dec.) |
| CS(=O)(=O)Nc1cc(C(O)CNC2CCN(c3ccc(CC4NC(=O)NC4=O)cc3)CC2)ccc1O (stereo not shown) [Example 87, N-[5-(2-{1-[4-(2,5-Dioxo-imidazolidin-4-ylmethyl)-phenyl]-piperidin-4-ylamino}-1-hydroxy-ethyl)-2-hydroxy-phenyl]-methanesulfonamide] | 1 | > 105 °C (dec.) |
| N=C1NC(=O)C(Cc2ccc(N3CCC(NC[C@H](O)COc4cccc5[nH]c(=O)[nH]c45)CC3)cc2)S1 (stereo partly drawn) [Example 89, 4-((2S)-2-Hydroxy-3-{1-[4-(2-imino-4-oxo-thiazolidin-5-ylmethyl)-phenyl]-piperidin-4-ylamino}-propoxy)-1,3-dihydro-benzoimidazol-2-one] | 1.1 | > 155 °C (dec.) |
| O=C1CCc2c(OC[C@@H](O)CNC3CCN(c4ccc(CC5SC(=O)NC5=O)cc4)CC3)ccc(O)c2N1 (stereo partly drawn) [Example 91, 5-(4-{4-[(2S)-2-Hydroxy-3-(8-hydroxy-2-oxo-1,2,3,4-tetrahydro-quinolin-5-yloxy)-propylamino]-piperidin-1-yl}-benzyl)-thiazolidine-2,4-dione] | 1.2 | > 140 °C (dec.) |
| CS(=O)(=O)Nc1cc(OC[C@@H](O)CNC2CCN(c3ccc(CC4SC(=O)NC4=O)cc3)CC2)ccc1O (stereo partly drawn) [Example 92, N-[5-((2S)-3-{1-[4-(2,4-Dioxo-thiazolidin-5-ylmethyl)-phenyl]-piperidin-4-ylamino}-2-hydroxy-propoxy)-2-hydroxy-phenyl]-methanesulfonamide] | 1.1 | > 70 °C (dec.) |
| O=C1NC(=O)C(Cc2ccc(N3CCC(NC[C@H](O)COc4ccc(O)c(NS(=O)(=O)c5ccccc5)c4)CC3)cc2)S1 (stereo partly drawn) [Example 93, N-[5-((2S)-3-{1-[4-(2,4-Dioxo-thiazolidin-5-ylmethyl)-phenyl]-piperidin-4-ylamino}-2-hydroxy-propoxy)-2-hydroxy-phenyl]-benzenesulfonamide] | 1 | > 120 °C (dec.) |
| CS(=O)(=O)Nc1cc([C@@H](O)CNC2CCN(c3ccc(CC4SC(=O)NC4=O)cc3)CC2)ccc1Cl (stereo partly drawn) [Example 95, N-[2-Chloro-5-((1R)-2-{1-[4-(2,4-dioxo-thiazolidin-5-ylmethyl)-phenyl]-piperidin-4-ylamino}-1-hydroxy-ethyl)-phenyl]-methanesulfonamide] | 0.59 | > 105 °C (dec.) |
| O=C1NC(=O)C(Cc2ccc(N3CCC(NC[C@H](O)c4ccc(O)c(NS(=O)(=O)c5ccccc5)c4)CC3)cc2)S1 (stereo partly drawn) [Example 96, N-(5-{(1R)-2-[(1-{4-[(2,4-Dioxo-1,3-thiazolidin-5-yl)methyl]phenyl}piperidin-4-yl)amino]-1-hydroxyethyl}-2-hydroxyphenyl)benzenesulfonamide] | 0.93 | > 150 °C (dec.) |
| CS(=O)(=O)Nc1cc(C(O)CNC2CCN(c3ccc(-c4nnn[nH]4)cc3)CC2)ccc1O (stereo not shown) [Example 97, N-[2-Hydroxy-5-(1-hydroxy-2-{1-[4-(1H-tetrazol-5-yl)-phenyl]-piperidin-4-ylamino}-ethyl)-phenyl]-methanesulfonamide] | 0.9 | > 175 °C (dec.) |
| CCOC(=O)Cn1nnnc1-c1ccc(N2CCC(NC[C@H](O)c3ccc(O)c(NS(C)(=O)=O)c3)CC2)cc1 [Example 98] | 1 | > 140 °C (dec.) |
| CS(=O)(=O)Nc1cc([C@@H](O)CNC2CCN(c3ccc(-c4nnnn4CC(=O)O)cc3)CC2)ccc1O [Example 99, [5-(4-{4-[((2R)-2-Hydroxy-2-{4-hydroxy-3-[(methylsulfonyl)amino]phenyl}ethyl)amino]-1-piperidinyl}phenyl)-1H-tetraazol-1-yl]acetic acid] | 0.97 | > 210 °C (dec.) |
